Source: patent US6596726B1, “Tricyclic compounds capable of inhibiting tyrosine kinases of the epidermal growth factor receptor family” (Warner Lambert Company, priority 1994, dated 2003)

Columns and labels:
[1] = tested on: erbB-2, 3, 4 autophosphorylation in SK-BR-3 breast tumor cells; test: Inhibition of conditioned media-induced autophosphorylation in SK-BR-3 breast tumor cells; assay type: cell-based, human; details: SK-BR-3 cells, read-out: SKBR-3 IC50
Protocol: Cells were grown to 100% confluency in 100 mm Petrie dishes (Corning). After the cells were treated for 5 minutes with either EGF (epidermal growth factor), PDGF, or bFGF (basic fibroblast growth factor) (20 ng/ml) or 1 ml of conditioned media from MDA-MB-231 cells, the media was removed and the monolayer scraped into 1 ml of ice cold lysis buffer (50 mM Hepes, pH 7.5, 150 mM NaCl, 10% glycerol, 1% triton X-100, 1 mM EDTA, 1 mM EGTA, 10 mM sodium pyrophosphate, 30 mM p-nitrophenyl phosphate, 1 mM orthovanadate, 50 mM sodium fluoride, 1 mM phenylmethylsulfonylfluoride, 10 μg/ml of aprotinin, and 10 μg/ml of leupeptin). The lysate was transferred to a microfuge tube (small centrifuge that holds 1-2 ml plastic centrifuge tubes), allowed to sit on ice 15 minutes and centrifuged 5 minutes at 10,000×g. The supernatant was transferred to a clean microfuge tube and 5 μg of antibody was added to designated samples. The tubes were rotated for 2 hours at 4° C. after which 25 μl of protein A sepharose was added and then rotation continued for at least 2 more hours. The protein A separose was washed 5 times with 50 mM Hepes, pH 7.5, 150 mM NaCl, 10% glycerol and 0.02% sodium azide. The precipitates were resuspended with 30 μl of Laemlli buffer (Laemmli, NATURE, […], pp. 680-685, 1970), heated to 100° C. for 5 minutes and centrifuged to obtain the supernatant. Whole cell extracts were made by scraping cells grown in the wells of 6 well plates into 0.2 ml of boiling Laemmli buffer. The extract were transferred to a microfuge tube and heated to 100° C. for 5 minutes. The entire supernatant from the immunoprecipitation or 35 μl of the whole cell extract was loaded onto a polyacrylamide gel (4-20%) and electrophoresis carried out by the method of Laemlli (Laemmli, 1970). Proteins in the gel were electrophoretically transferred to nitrocellulose and the membrane was washed once in 10 mM Tris buffer, pH 7.2, 150 mM NaCl, 0.01% Azide (TNA) and blocked overnight in TNA containing 5% bovine serum albumin and 1% ovalbumin (blocking buffer). The membrane was blotted for 2 hours with the primary antibody (1 μg/ml in blocking buffer) and then washed 2 times sequentially in TNA, TNA containing 0.05% Tween-20 and 0.05% Nonidet P-40 (commercially available detergent) and TNA. The membranes were then incubated for 2 hours in blocking buffer containing 0.1 μCi/ml of [^125I] protein A and then washed again as above. After the blots were dry they were loaded into a film cassette and exposed to X-AR X-ray film for 1-7 days. Protein A is a bacterial protein that specifically bonds certain IgG subtypes and is useful in binding to and isolating antibody-antigen complexes.
Inhibition of EGF-Induced Autophosphorylation in A431 Epidermoid Carcinoma Cells and Conditioned Media-Induced Autophosphorylation in SK-BR-3 Breast Tumor Cells by Compounds of the Current Invention

[2] = tested on: B104-1-1 NIH-3T3 mouse fibroblasts transfected by the neu oncogene; test: Growth inhibition assay (antiproliferative), B104-1-1; assay type: cell-based; details: 72 h, B104-1-1 cells, 3 days
Excerpt: Antiproliferative Properties of Tyrosine Kinase Inhibitors IC50 (nM)
B104-1-1—NIH-3T3 mouse fibroblasts transfected by the neu oncogene: Stern et al., Science, 234, pp. 321-324 (1987);

[3] = tested on: SK-BR-3 human breast carcinoma overexpressing erbB-2 and erbB-3; test: Growth inhibition assay (antiproliferative), SK-BR-3; assay type: cell-based; details: 72 h, SK-BR-3 cells, 3 days
Protocol: Cells (2×10^4) were seeded in 24-well plates (1.7×1.6 cm, flat bottom) in two mls of medium with or without various concentrations of drug. Plates were incubated for 3 days at 37° in a humidified atmosphere containing 5% CO2 in air. Cell growth was determined by cell count with a Coulter Model AM electronic cell counter (Coulter Electronics, Inc., Hialeah, Fla.).

- IC50 [1]: 55 nM
- IC50 [3]: 200 nM
SMILES: Brc1cccc(Nc2ncnc3cc4[nH]cnc4cc23)c1 [Example 6, 4-(3-Bromoanilino)imidazolo[4,5-g]quinazoline]
- IC50 [2]: 3.2 µM
